Measurements reported in US20140249097A1, “Inhibition of HIF-1 activation for Anti-Tumor and Anti-Inflammatory responses” (priority 2010, published 2014).
Like-named read-outs stand apart in the source and are kept apart here. Peptide text beside a SMILES is read from it. * marks the point of attachment. Cbz = O=C(OCc1ccccc1)*

Experiments:
4T1ODD-luc cells = experiment: Cell Titer-Glo cell viability assay; settings: 10 μg/ml 1400W or 15 μM EGCG with 1 μg/ml doxorubicin, to day 3
Excerpt: Cell viability was quantified by Cell Titer-Glo luminescent cell viability assay (Promega, Madison, Wis., United States of America) daily until day 3. The daily cell viability was normalized to the initial cell viability on day 0 within each group.

iNOS = experiment: Western blotting of iNOS in 4T1ODD-luc cells; assay type: cell-based, mouse; settings: for inhibition of iNOS expression in doxorubicin-treated cells / doxorubicin-induced iNOS upregulation: with doxorubicin; for inhibition of iNOS expression in doxorubicin-treated cells: 24 h; for doxorubicin-induced iNOS upregulation: 48 h; for basal level of iNOS expression: without doxorubicin, 24 h and 48 h, 10 μg/ml 1400W or 15 μM EGCG
Experimental: (§1) Cell nuclear proteins were extracted using the NucBuster protein extraction kit (Novagen, Gibbstown, N.J., United States of America). Total cell lysates or cell nuclear extractions were quantified using a protein assay reagent (Bio-Rad). Equal amounts of protein sample were separated by Bis-HCl gel (Bio-Rad) and transferred to a […] Immun-Blot PVDF membrane (Bio-Rad).

nitric oxide = experiment: Flow cytometry of intracellular nitric oxide (DAF-FM) in 4T1ODD-luc cells; assay type: cell-based, mouse; settings: 10 μg/ml 1400W or 15 μM EGCG with 1 μg/ml doxorubicin, 48 hours
Experimental: To detect intracellular nitric oxide levels, 1×10^6 4 T1ODD-luc cells were plated per 10-cm cell culture dish with 8 ml of cell culture medium. Doxorubicin (1 μg/ml and 5 μg/ml) or an equal volume of control solvent was added into the cell culture medium the next day and treatment continued for 48 hours. […] Equal amounts of solvent were added for the control group. To quantify intracellular nitric oxide, a single cell suspension was made after trypsinization. 2 ml of 5 uM nitric oxide-specific probe DAF-FM diacetate (4-amino-5-methylamino-2′,7′-difluorofluorescein diacetate) (Invitrogen) were incubated with each cell sample at room temperature in darkness for 30 minutes. The cells were washed with PBS and centrifuged to remove the excess DAF-FM diacetate probe. The cells were resuspended into 500 ul of phenol-free DMEM and incubated for another 20 minutes for complete intracellular deacetylation of the probe. The mean fluorescence intensity of the deacetylated DAF-FM reacted with nitric oxide was quantified by FACSCalibur flow cytometer in FITC channel (Becton Dickinson, Franklin Lakes, N.J., United States of America).

STAT1 = experiment: Western blotting of STAT1 and phospho-STAT1 in 4T1ODD-luc cells; assay type: cell-based, mouse; settings: 48 hours post-treatment
Experimental: as §1

HIF-1α [1] = assay type: cell-based, murine
HIF-1α [2] = experiment: Western blotting of HIF-1α in 4T1ODD-luc cells; assay type: cell-based, mouse; settings: 4T1ODD-luc cells, post-treatment day 2
Experimental: as §1

HIF-1α [3] = experiment: Western blotting of HIF-1α in MCF-7 cells; assay type: cell-based, human; settings: MCF-7 cells, post-treatment day 3
Experimental: as §1

C533S-ODD-luc = C533S-ODD-luc reporter in 4T1 cells in vitro; assay type: cell-based, murine
[4] = tested on: 4T1 (murine mammary adenocarcinoma); experiment: Tumor growth delay, radiotherapy plus L-NAME, 4T1; assay type: in vivo, mice; settings: 4T1 tumors, 3×6 Gy, L-NAME in drinking water
Excerpt: (§2) Female NIH Swiss nude mice, C57BL/6 mice were purchased from the National Cancer Institute (NCI; Fredrick, Md., United States of America). Mice with a genetic disruption of the inducible […] gene (C57BL/6 iNOS^−/−) were obtained from the Jackson Laboratory (Bar Harbor, Me., United States of America). Female BALB/c mice were obtained from Charles River Laboratories (Raleigh, N.C., United States of America). Animals were maintained and cared for in accordance with the Duke University Institutional Animal Care and Use Committee guidelines. For tumor implantation, 4T1 tumors were grown in nude mice or in syngeneic BALB/c mice, and B16F10 melanoma in syngeneic C57BL/6 or iNOS^−/− mice. About 5×10^5 wild type- or luciferase reporter gene-transfected tumor cells were injected subcutaneously (s.c.) into mice in 50 μl of PBS solution in the hind legs of ketamine/xylazine-anesthetized mice. When the tumors reached 6-8 mm in diameter, mice were randomly assigned to experimental groups. To image the luciferase activity, single dose of 6 Gy X-ray was given to the tumor on the right leg and this day was set as day 0. The luciferase activity was imaged everyday or every other day for ten days. For the tumor growth delay assay, radiotherapy was employed in its clinical mode: tumors were treated with 3 fractions of 6 Gy every other day from day 0.

tumor vasculature = experiment: CD31 staining of tumor vasculature; assay type: in vivo, mice; settings: L-NAME in conjunction with radiotherapy, tumors excised day 10, 4T1 and B16F10
Experimental: Vessel staining was performed on tumor cryoslices by using the VECTASTAIN® ABC and the NOVARED™ kits from Vector Laboratories (Burlingame, Calif., United States of America), according to the manufacturer's protocol. The primary anti-CD31 antibody (Santa Cruz Biotechnology, Santa Cruz, Calif.) was labeled with a secondary biotinylated anti-rabbit antibody (Jackson ImmunoResearch Labs, Inc.). Slices were counterstained using Harris' hematoxilin. Vascular density was determined by counting CD31-positive structures in 5 random fields per tumor.

B16F10 (murine melanoma) = experiment: Tumor growth delay, radiotherapy plus L-NAME, B16F10; assay type: in vivo, mice; settings: B16F10 tumors, 3×6 Gy, L-NAME in drinking water
Excerpt: as §2

CC(=N)NCc1cccc(CN)c1 [1400W, N-(3-(aminomethyl)benzyl)acetamidine]
effect of combination on cytotoxicity of doxorubicin (cell viability) (4T1ODD-luc cells): did not attenuate the cytotoxicity of doxorubicin
inhibition of iNOS expression in doxorubicin-treated cells (iNOS): not obvious
doxorubicin-induced iNOS upregulation (iNOS): successfully suppressed the doxorubicin-induced iNOS upregulation
basal level of iNOS expression (iNOS): suppressed the basal level of iNOS expression
doxorubicin-induced increase of intracellular NO (nitric oxide): significantly suppressed the doxorubicin-induced increase of intracellular NO
doxorubicin-induced upregulation of STAT1 expression and activation (STAT1): potently suppressed the doxorubicin-induced upregulation of STAT1 expression and activation

CC(C)C[C@@H](C=O)NC(=O)[C@H](CC(C)C)NC(=O)[C@H](CC(C)C)NC(=O)OCc1ccccc1 [MG132] (Cbz-Leu-Leu-Leu-aldehyde)
luminescence arising from ODD-luc reporter gene expression (HIF-1α [1]; 4T1 cells, CoCl2 240 μM for 12 hrs, MG132 10 μM for 12 hrs, vs background): rose significantly

O=C(O[C@@H]1Cc2c(O)cc(O)cc2O[C@@H]1c1cc(O)c(O)c(O)c1)c1cc(O)c(O)c(O)c1 [EGCG, epigallocatechin gallate]
effect of combination on cytotoxicity of doxorubicin (cell viability) (4T1ODD-luc cells): did not attenuate the cytotoxicity of doxorubicin
doxorubicin-induced normoxic HIF-1α accumulation (HIF-1α [2]): successfully suppressed the doxorubicin-induced normoxic HIF-1α accumulation
inhibition of iNOS expression in doxorubicin-treated cells (iNOS): not obvious
doxorubicin-induced iNOS upregulation (iNOS): successfully suppressed the doxorubicin-induced iNOS upregulation
basal level of iNOS expression (iNOS): suppressed the basal level of iNOS expression
doxorubicin-induced increase of intracellular NO (nitric oxide): significantly suppressed the doxorubicin-induced increase of intracellular NO
doxorubicin-induced normoxic HIF-1α accumulation (HIF-1α [3]): successfully suppressed the doxorubicin-induced normoxic HIF-1α accumulation
doxorubicin-induced upregulation of STAT1 expression and activation (STAT1): potently suppressed the doxorubicin-induced upregulation of STAT1 expression and activation

[Cl-].[Cl-].[Co+2] [CoCl2]
C533S-ODD-luc induction (C533S-ODD-luc): significant inductions, similar to wild-type
luminescence arising from ODD-luc reporter gene expression (HIF-1α [1]): rose significantly

CC1(C)N([O])C(c2ccc(C(=O)[O-])cc2)=[N+]([O-])C1(C)C.[K+] [carboxy-PTIO, potassium 2-(4-carboxyphenyl)-4,4,5,5-tetramethylimidazoline-1-oxyl-3-oxide]
effect on HIF-1α activation (ODD-luc) by GSNO (HIF-1α [1]): effectively suppressed HIF-1α activation by GSNO

COC(=O)[C@@H](N)CCCNC(=N)N[N+](=O)[O-] [L-NAME, Nω-nitro-L-arginine methyl ester]
tumor growth delay, therapeutic efficacy of radiotherapy with L-NAME [4]: significantly enhanced the therapeutic efficacy of radiotherapy
tumor vasculature (CD31+ vascular density) (tumor vasculature): significantly reduced tumor vasculature
tumor growth delay, therapeutic efficacy of radiotherapy with L-NAME (B16F10 (murine melanoma)): significantly enhanced the therapeutic efficacy of radiotherapy

N[C@@H](CCC(=O)N[C@@H](CSN=O)C(=O)NCC(=O)O)C(=O)O [GSNO, S-nitrosoglutathione]
C533S-ODD-luc expression induced by GSNO (C533S-ODD-luc; 4T1 cells, GSNO 1 mM): almost absent
